± gives the standard deviation of the averaged measurements.
Columns and labels:
CELECOXIB [1] = compound: T1, Cc1ccc(-c2cc(C(F)(F)F)nn2-c2ccc(S(N)(=O)=O)cc2)cc1 [CELECOXIB]; assay: surviving fraction relative to DMSO-only wells; higher = less growth inhibition; conditions: exposure time: 5 days
How it was run: (§1)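 Viability was determined by CellTiter-Glo luminescence, expressed as surviving fraction normalised to the median of DMSO-only wells. The cells were log-phase tumour cell lines seeded at 250–500 per well in 384-well plates and, after 24 hours, exposed continuously for five days to inhibitors at 0.5, 1, 5, 10, 50, 100, 500 and 1000 nM. Three screens per line were run, keeping only lines with replicate Pearson r >0.7 and median Z' >0.3.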

CAMPTOTHECIN [2] = compound: T2, CC[C@@]1(O)C(=O)OCc2c1cc1n(c2=O)Cc2cc3ccccc3nc2-1 [CAMPTOTHECIN]; assay: as above; conditions: exposure time: 5 days
How it was run: as §1

[3] = compound: CC(=O)NCC(=O)N1[C@@H]2CC[C@H]1c1ccc(Nc3ncc(C(F)(F)F)c(NC4CCC4)n3)cc12; assay: as above; conditions: exposure time: 5 days
How it was run: as §1

CARBOPLATIN [4] = compound: T3, O=C(O)C1(C(=O)O)CCC1.[NH2-].[NH2-].[Pt+2] [CARBOPLATIN]; assay: as above; conditions: exposure time: 5 days
How it was run: as §1

OSI-906 [5] = compound: T4, C[C@]1(O)C[C@@H](c2nc(-c3ccc4ccc(-c5ccccc5)nc4c3)c3c(N)nccn32)C1 [OSI-906]; assay: as above; conditions: exposure time: 5 days
How it was run: as §1

YM155 [6] = compound: T5, COCC[n+]1c2c(n(Cc3cnccn3)c1C)C(=O)c1ccccc1C2=O [YM155]; assay: as above; conditions: exposure time: 5 days
How it was run: as §1

PACLITAXEL [7] = compound: T6, CC(=O)O[C@H]1C(=O)[C@@]2(C)[C@H]([C@H](OC(=O)c3ccccc3)[C@]3(O)C[C@H](OC(=O)[C@H](O)[C@@H](NC(=O)c4ccccc4)c4ccccc4)C(C)=C1C3(C)C)[C@]1(OC(C)=O)CO[C@@H]1C[C@@H]2O [PACLITAXEL]; assay: as above; conditions: exposure time: 5 days
How it was run: as §1

GEFITINIB [8] = compound: T7, COc1cc2ncnc(Nc3ccc(F)c(Cl)c3)c2cc1OCCCN1CCOCC1 [GEFITINIB]; assay: as above; conditions: exposure time: 5 days
How it was run: as §1

[9] = compound: CC(=O)c1c(C)c2cnc(Nc3ccc(N4CCNCC4)cn3)nc2n(C2CCCC2)c1=O; assay: as above; conditions: exposure time: 5 days
How it was run: as §1

CELECOXIB [10] = compound: T1, CELECOXIB; assay: area under dose-response curve of surviving fraction (unscaled, Aref=0) (surviving fraction x log10(nM)); higher = more resistant; conditions: exposure time: 5 days; dose range 0.5-1000 nM
How it was run: (§2)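 Tumour cell lines in 384-well plates were exposed for five days to eight inhibitor concentrations from 0.5 to 1000 nM. Viability was read by CellTiter-Glo luminescence, normalised to DMSO-only wells, in three screens per line. Dose-response survival curves were fitted to surviving fractions by 3-parameter logistic regression in the drc R package. Area under the curve is the unscaled activity area (Aref = 0) over log10 dose.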

CAMPTOTHECIN [11] = compound: T2, CAMPTOTHECIN; assay: as above; conditions: exposure time: 5 days; dose range 0.5-1000 nM
How it was run: as §2

[12] = compound: CC(=O)NCC(=O)N1[C@@H]2CC[C@H]1c1ccc(Nc3ncc(C(F)(F)F)c(NC4CCC4)n3)cc12; assay: as above; conditions: exposure time: 5 days; dose range 0.5-1000 nM
How it was run: as §2

CARBOPLATIN [13] = compound: T3, CARBOPLATIN; assay: as above; conditions: exposure time: 5 days; dose range 0.5-1000 nM
How it was run: as §2

OSI-906 [14] = compound: T4, OSI-906; assay: as above; conditions: exposure time: 5 days; dose range 0.5-1000 nM
How it was run: as §2

YM155 [15] = compound: T5, YM155; assay: as above; conditions: exposure time: 5 days; dose range 0.5-1000 nM
How it was run: as §2

PACLITAXEL [16] = compound: T6, PACLITAXEL; assay: as above; conditions: exposure time: 5 days; dose range 0.5-1000 nM
How it was run: as §2

GEFITINIB [17] = compound: T7, GEFITINIB; assay: as above; conditions: exposure time: 5 days; dose range 0.5-1000 nM
How it was run: as §2

[18] = compound: CC(=O)c1c(C)c2cnc(Nc3ccc(N4CCNCC4)cn3)nc2n(C2CCCC2)c1=O; assay: as above; conditions: exposure time: 5 days; dose range 0.5-1000 nM
How it was run: as §2

COLO320DM LARGE INTESTINE was tested, and the surviving fraction (CELECOXIB [1]; 0.5 nM) was 1.12 ± 0.18, the surviving fraction (CELECOXIB [1]; 1 nM) was 1.12 ± 0.17 and the surviving fraction (CELECOXIB [1]; 5 nM) was 1.15 ± 0.075. It also gave a surviving fraction (CELECOXIB [1]; 10 nM) of 1.12 ± 0.15, a surviving fraction (CELECOXIB [1]; 50 nM) of 1.14 ± 0.043 and a surviving fraction (CELECOXIB [1]; 100 nM) of 1.15 ± 0.025. It also gave a surviving fraction (CELECOXIB [1]; 500 nM) of 1.15 ± 0.074, a surviving fraction (CELECOXIB [1]; 1000 nM) of 1.13 ± 0.031 and a surviving fraction (CAMPTOTHECIN [2]; 0.5 nM) of 0.381 ± 0.011. The surviving fraction (CAMPTOTHECIN [2]; 1 nM) was 0.929 ± 0.12, the surviving fraction (CAMPTOTHECIN [2]; 5 nM) was 0.458 ± 0.026 and the surviving fraction (CAMPTOTHECIN [2]; 10 nM) was 0.38 ± 0.023. It also gave a surviving fraction (CAMPTOTHECIN [2]; 50 nM) of 0.137 ± 0.003, a surviving fraction (CAMPTOTHECIN [2]; 100 nM) of 0.263 ± 0.0072 and a surviving fraction (CAMPTOTHECIN [2]; 500 nM) of 0.138 ± 0.0052. It also gave a surviving fraction (CAMPTOTHECIN [2]; 1000 nM) of 0.127 ± 0.0051, a surviving fraction ([3]; 0.5 nM) of 1.1 ± 0.058 and a surviving fraction ([3]; 1 nM) of 1.09 ± 0.077. It also gave a surviving fraction ([3]; 5 nM) of 0.979 ± 0.086, a surviving fraction ([3]; 10 nM) of 0.954 ± 0.035 and a surviving fraction ([3]; 50 nM) of 0.573 ± 0.087. It also gave a surviving fraction ([3]; 100 nM) of 0.559 ± 0.02, a surviving fraction ([3]; 500 nM) of 0.283 ± 0.0029 and a surviving fraction ([3]; 1000 nM) of 0.237 ± 0.015. It also gave a surviving fraction (CARBOPLATIN [4]; 0.5 nM) of 1.12 ± 0.013, a surviving fraction (CARBOPLATIN [4]; 1 nM) of 1.14 ± 0.021 and a surviving fraction (CARBOPLATIN [4]; 5 nM) of 1.1 ± 0.045. It also gave a surviving fraction (CARBOPLATIN [4]; 10 nM) of 1.06 ± 0.059, a surviving fraction (CARBOPLATIN [4]; 50 nM) of 1.2 ± 0.057 and a surviving fraction (CARBOPLATIN [4]; 100 nM) of 1.2 ± 0.15. The surviving fraction (CARBOPLATIN [4]; 500 nM) was 1.15 ± 0.094, the surviving fraction (CARBOPLATIN [4]; 1000 nM) was 1.14 ± 0.1 and the surviving fraction (OSI-906 [5]; 0.5 nM) was 1.03 ± 0.099. The surviving fraction (OSI-906 [5]; 1 nM) was 1.09 ± 0.065, the surviving fraction (OSI-906 [5]; 5 nM) was 1.09 ± 0.023 and the surviving fraction (OSI-906 [5]; 10 nM) was 1.01 ± 0.049. It also gave a surviving fraction (OSI-906 [5]; 50 nM) of 0.875 ± 0.04, a surviving fraction (OSI-906 [5]; 100 nM) of 0.818 ± 0.076 and a surviving fraction (OSI-906 [5]; 500 nM) of 0.572 ± 0.048. It also gave a surviving fraction (OSI-906 [5]; 1000 nM) of 0.528 ± 0.032, a surviving fraction (YM155 [6]; 0.5 nM) of 0.981 ± 0.051 and a surviving fraction (YM155 [6]; 1 nM) of 1.01 ± 0.063. It also gave a surviving fraction (YM155 [6]; 5 nM) of 0.994 ± 0.087, a surviving fraction (YM155 [6]; 10 nM) of 1.03 ± 0.17 and a surviving fraction (YM155 [6]; 50 nM) of 0.708 ± 0.059. The surviving fraction (YM155 [6]; 100 nM) was 0.528 ± 0.057, the surviving fraction (YM155 [6]; 500 nM) was 0.231 ± 0.013 and the surviving fraction (YM155 [6]; 1000 nM) was 0.201 ± 0.012. The surviving fraction (PACLITAXEL [7]; 0.5 nM) was 1.12 ± 0.1, the surviving fraction (PACLITAXEL [7]; 1 nM) was 1.1 ± 0.091 and the surviving fraction (PACLITAXEL [7]; 5 nM) was 1.1 ± 0.018. For the same test system, the surviving fraction (PACLITAXEL [7]; 10 nM) was 1.03 ± 0.18, the surviving fraction (PACLITAXEL [7]; 50 nM) was 0.525 ± 0.033 and the surviving fraction (PACLITAXEL [7]; 100 nM) was 0.292 ± 0.014. It also gave a surviving fraction (PACLITAXEL [7]; 500 nM) of 0.161 ± 0.015, a surviving fraction (PACLITAXEL [7]; 1000 nM) of 0.116 ± 0.0099 and a surviving fraction (GEFITINIB [8]; 0.5 nM) of 1.17 ± 0.07. The surviving fraction (GEFITINIB [8]; 1 nM) was 1.21 ± 0.051, the surviving fraction (GEFITINIB [8]; 5 nM) was 1.13 ± 0.081 and the surviving fraction (GEFITINIB [8]; 10 nM) was 1.1 ± 0.026. The surviving fraction (GEFITINIB [8]; 50 nM) was 1.14 ± 0.085, the surviving fraction (GEFITINIB [8]; 100 nM) was 1.2 ± 0.1 and the surviving fraction (GEFITINIB [8]; 500 nM) was 1.05 ± 0.14. The surviving fraction (GEFITINIB [8]; 1000 nM) was 1.06 ± 0.094, the surviving fraction ([9]; 0.5 nM) was 1.084 ± 0.0093 and the surviving fraction ([9]; 1 nM) was 1.08 ± 0.04. The surviving fraction ([9]; 5 nM) was 1.12 ± 0.038, the surviving fraction ([9]; 10 nM) was 1.1 ± 0.039 and the surviving fraction ([9]; 50 nM) was 1.08 ± 0.065. The surviving fraction ([9]; 100 nM) was 1.05 ± 0.048, the surviving fraction ([9]; 500 nM) was 0.78 ± 0.061 and the surviving fraction ([9]; 1000 nM) was 0.735 ± 0.039. For the same test system, the “area under dose-response curve” value (CELECOXIB [10]) was 3.75, the “area under dose-response curve” value (CAMPTOTHECIN [11]) was 1.14 and the “area under dose-response curve” value [12] was 2.35. The “area under dose-response curve” value (CARBOPLATIN [13]) was 4.1, the “area under dose-response curve” value (OSI-906 [14]) was 3 and the “area under dose-response curve” value (YM155 [15]) was 2.37. The “area under dose-response curve” value (PACLITAXEL [16]) was 2.1, the “area under dose-response curve” value (GEFITINIB [17]) was 4.07 and the “area under dose-response curve” value [18] was 3.25.

Source: the supplement of paper PMC6045584
